Holding throughout (experiment): Kinase selectivity, scanMAX Kinase assay panel (DiscoverX), % control at 1 uM
Holding throughout (format): binding

For assay [1], the target named is T1, scanMAX Kinase assay panel (Homo sapiens, UniProt P41743).
T1 construct: purchased DiscoverX
T1 sequence (P41743 1-596): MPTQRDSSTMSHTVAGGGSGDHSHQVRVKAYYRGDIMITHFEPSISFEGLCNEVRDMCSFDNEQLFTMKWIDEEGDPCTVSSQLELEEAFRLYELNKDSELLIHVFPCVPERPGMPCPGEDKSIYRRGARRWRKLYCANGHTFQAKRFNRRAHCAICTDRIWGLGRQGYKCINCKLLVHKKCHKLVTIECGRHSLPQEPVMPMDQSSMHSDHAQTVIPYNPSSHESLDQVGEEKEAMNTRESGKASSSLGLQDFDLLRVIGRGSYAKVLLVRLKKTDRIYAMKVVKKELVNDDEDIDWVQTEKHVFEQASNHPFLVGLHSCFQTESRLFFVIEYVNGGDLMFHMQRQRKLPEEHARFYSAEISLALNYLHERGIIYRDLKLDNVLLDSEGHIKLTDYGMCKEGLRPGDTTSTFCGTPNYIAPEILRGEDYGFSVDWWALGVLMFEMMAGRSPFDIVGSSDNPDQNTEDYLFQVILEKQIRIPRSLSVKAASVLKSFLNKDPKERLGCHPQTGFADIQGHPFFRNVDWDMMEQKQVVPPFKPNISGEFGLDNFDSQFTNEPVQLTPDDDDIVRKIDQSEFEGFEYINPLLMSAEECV
The following applies: PRKCI; 1 uM; read-out: Percent Control (%). In a few lines: (§1)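 Binding across the scanMAX kinase panel was tested at 1 uM compound. % control = (compound − positive control)/(negative control − positive control) × 100; below 35 counted as active.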

The target of assay [2] is T2, scanMAX Kinase assay panel (Homo sapiens, UniProt Q16659).
T2 construct: purchased DiscoverX
T2 sequence (Q16659 whole entry): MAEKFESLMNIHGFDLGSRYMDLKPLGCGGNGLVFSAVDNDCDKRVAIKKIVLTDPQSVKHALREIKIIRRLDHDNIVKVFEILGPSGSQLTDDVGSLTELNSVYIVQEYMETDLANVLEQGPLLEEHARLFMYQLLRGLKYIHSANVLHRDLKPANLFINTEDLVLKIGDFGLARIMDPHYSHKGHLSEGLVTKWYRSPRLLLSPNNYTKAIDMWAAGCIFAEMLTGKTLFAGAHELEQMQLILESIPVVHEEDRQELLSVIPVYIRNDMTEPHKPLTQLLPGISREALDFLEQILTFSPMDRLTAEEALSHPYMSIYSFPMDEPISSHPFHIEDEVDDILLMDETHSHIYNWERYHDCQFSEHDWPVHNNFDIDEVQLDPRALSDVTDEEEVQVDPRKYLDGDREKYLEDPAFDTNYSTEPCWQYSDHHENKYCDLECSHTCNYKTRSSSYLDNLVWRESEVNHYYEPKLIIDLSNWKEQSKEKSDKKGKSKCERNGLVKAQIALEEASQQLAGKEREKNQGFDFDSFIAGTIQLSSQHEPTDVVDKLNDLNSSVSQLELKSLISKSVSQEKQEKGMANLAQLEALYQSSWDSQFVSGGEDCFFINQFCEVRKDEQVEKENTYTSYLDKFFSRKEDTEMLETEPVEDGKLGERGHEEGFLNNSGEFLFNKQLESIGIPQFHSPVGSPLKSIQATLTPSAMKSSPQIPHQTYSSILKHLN
The following applies: ERK3; 1 uM; read-out: Percent Control (%). In outline: as §1

Assay [3] concerns the target T3, scanMAX Kinase assay panel (Homo sapiens, UniProt P07949, M918T).
T3 construct: purchased DiscoverX
Conditions: RET (M918T); 1 uM; read-out: Percent Control (%). In a few lines: as §1

Assay [4] has as its target T4, scanMAX Kinase assay panel (Homo sapiens, UniProt Q9NSY1).
T4 construct: purchased DiscoverX
Conditions: BIKE; 1 uM; read-out: Percent Control (%). In a few lines: as §1

Assay [5] concerns the target T5, scanMAX Kinase assay panel (Homo sapiens, UniProt P04629).
T5 construct: purchased DiscoverX
The following applies: TRKA; 1 uM; read-out: Percent Control (%). In outline:
as §1

In assay [6] the target is T6, scanMAX Kinase assay panel (Homo sapiens, UniProt P30530).
T6 construct: purchased DiscoverX
T6 sequence (P30530 26-894): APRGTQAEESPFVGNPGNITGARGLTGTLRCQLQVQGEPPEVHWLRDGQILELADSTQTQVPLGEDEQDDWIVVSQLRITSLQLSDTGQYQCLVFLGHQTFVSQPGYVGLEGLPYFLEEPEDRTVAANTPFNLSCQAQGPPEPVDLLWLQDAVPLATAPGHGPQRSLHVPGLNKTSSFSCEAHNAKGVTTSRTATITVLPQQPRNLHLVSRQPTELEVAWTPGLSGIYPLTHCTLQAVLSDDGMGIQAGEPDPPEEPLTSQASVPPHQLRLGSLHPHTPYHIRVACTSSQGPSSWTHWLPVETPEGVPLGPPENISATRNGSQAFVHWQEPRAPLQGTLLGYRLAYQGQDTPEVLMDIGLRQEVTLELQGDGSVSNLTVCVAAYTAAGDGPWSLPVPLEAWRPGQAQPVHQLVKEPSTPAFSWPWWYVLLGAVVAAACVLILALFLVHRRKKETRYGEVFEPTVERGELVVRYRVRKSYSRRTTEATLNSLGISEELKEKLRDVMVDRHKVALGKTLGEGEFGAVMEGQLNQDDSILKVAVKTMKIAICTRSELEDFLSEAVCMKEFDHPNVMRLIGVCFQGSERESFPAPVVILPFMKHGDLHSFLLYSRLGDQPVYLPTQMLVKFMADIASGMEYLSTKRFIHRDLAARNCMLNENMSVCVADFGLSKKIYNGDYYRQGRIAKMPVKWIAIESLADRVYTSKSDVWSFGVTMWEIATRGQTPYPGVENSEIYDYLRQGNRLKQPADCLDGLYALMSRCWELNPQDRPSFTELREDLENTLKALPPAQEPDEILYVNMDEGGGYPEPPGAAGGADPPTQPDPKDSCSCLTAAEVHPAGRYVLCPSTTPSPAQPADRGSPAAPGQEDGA
Conditions: AXL; 1 uM; read-out: Percent Control (%). In a few lines: as §1

Assay [7] concerns the target T7, scanMAX Kinase assay panel (Homo sapiens, UniProt Q02156).
T7 construct: purchased DiscoverX
T7 sequence (Q02156 1-737): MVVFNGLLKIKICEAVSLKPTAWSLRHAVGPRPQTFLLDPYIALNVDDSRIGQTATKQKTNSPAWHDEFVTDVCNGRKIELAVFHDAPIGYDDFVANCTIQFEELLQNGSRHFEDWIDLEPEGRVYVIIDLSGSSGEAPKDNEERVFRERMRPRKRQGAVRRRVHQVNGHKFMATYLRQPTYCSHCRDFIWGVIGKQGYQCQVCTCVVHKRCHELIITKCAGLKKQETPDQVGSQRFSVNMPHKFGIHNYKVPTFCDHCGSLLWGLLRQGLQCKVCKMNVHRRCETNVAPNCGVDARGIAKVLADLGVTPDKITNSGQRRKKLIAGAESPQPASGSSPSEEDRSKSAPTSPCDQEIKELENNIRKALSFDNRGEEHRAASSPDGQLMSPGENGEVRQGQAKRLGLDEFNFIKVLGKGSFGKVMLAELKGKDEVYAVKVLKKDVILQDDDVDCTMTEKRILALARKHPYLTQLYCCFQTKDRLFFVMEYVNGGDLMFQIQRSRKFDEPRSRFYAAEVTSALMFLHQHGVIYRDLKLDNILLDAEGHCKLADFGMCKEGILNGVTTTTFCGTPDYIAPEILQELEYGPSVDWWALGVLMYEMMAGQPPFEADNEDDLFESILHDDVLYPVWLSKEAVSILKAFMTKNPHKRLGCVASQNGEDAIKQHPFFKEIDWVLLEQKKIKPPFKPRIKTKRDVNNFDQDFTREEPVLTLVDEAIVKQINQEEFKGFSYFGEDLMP
The following applies: PRKCE; 1 uM; read-out: Percent Control (%). In outline: as §1

T4 sequence (Q9NSY1 whole entry): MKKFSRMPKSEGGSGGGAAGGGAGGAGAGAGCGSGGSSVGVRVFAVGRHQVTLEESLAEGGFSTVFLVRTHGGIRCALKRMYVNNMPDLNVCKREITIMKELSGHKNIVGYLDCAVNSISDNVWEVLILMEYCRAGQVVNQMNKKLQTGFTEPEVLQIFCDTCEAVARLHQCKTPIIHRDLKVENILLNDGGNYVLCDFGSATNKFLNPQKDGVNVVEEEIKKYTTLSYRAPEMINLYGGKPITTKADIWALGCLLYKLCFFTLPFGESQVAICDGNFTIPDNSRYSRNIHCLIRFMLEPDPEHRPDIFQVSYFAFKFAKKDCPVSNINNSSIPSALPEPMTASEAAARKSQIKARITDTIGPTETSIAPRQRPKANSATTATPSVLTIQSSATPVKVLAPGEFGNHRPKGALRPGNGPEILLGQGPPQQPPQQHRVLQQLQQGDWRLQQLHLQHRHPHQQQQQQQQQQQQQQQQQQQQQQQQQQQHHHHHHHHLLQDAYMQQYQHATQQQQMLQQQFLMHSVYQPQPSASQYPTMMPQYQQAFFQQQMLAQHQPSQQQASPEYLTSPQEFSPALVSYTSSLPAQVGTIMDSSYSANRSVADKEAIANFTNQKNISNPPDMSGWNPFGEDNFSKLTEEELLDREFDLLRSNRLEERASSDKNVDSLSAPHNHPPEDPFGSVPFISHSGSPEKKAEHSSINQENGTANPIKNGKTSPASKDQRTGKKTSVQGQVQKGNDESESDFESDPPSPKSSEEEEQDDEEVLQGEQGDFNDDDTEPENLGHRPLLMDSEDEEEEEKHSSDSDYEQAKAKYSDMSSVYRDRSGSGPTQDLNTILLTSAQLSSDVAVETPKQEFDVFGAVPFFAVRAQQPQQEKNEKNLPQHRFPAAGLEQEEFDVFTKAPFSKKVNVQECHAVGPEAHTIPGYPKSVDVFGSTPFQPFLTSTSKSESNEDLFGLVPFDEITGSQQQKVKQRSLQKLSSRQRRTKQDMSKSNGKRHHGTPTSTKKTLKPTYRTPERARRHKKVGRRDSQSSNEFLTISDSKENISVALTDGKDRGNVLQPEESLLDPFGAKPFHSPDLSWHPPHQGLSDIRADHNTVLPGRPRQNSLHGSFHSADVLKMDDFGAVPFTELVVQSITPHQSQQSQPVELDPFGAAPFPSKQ
T3 sequence (P07949 29-1114 M918T): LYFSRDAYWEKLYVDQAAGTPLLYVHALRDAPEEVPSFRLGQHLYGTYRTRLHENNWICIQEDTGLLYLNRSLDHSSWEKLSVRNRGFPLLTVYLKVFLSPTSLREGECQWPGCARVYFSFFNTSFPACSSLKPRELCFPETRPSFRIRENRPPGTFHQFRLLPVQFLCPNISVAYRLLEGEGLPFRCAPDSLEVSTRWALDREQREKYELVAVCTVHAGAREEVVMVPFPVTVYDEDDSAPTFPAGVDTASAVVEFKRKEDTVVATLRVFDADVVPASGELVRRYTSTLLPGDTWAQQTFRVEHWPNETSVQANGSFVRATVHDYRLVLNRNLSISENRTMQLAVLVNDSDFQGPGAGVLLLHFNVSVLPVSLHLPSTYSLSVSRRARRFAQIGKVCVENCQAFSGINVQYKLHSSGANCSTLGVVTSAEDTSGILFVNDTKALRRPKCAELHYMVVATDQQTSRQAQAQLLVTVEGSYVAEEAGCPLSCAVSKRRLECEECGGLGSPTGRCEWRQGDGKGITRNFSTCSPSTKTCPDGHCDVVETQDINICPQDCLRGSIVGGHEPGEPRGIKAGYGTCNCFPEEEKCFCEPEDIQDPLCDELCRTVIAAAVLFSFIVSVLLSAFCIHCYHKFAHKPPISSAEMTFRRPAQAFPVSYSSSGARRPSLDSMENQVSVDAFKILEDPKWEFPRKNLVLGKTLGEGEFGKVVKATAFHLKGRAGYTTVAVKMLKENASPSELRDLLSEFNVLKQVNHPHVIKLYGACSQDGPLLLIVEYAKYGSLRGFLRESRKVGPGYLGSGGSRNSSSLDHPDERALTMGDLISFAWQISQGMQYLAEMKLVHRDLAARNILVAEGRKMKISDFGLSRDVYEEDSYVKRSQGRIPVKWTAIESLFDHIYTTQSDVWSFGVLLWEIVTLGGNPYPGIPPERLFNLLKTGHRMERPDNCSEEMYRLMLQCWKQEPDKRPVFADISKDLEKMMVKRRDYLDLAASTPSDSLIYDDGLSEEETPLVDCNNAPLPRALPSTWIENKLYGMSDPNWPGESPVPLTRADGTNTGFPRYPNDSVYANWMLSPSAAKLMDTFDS
T5 sequence (P04629 33-796): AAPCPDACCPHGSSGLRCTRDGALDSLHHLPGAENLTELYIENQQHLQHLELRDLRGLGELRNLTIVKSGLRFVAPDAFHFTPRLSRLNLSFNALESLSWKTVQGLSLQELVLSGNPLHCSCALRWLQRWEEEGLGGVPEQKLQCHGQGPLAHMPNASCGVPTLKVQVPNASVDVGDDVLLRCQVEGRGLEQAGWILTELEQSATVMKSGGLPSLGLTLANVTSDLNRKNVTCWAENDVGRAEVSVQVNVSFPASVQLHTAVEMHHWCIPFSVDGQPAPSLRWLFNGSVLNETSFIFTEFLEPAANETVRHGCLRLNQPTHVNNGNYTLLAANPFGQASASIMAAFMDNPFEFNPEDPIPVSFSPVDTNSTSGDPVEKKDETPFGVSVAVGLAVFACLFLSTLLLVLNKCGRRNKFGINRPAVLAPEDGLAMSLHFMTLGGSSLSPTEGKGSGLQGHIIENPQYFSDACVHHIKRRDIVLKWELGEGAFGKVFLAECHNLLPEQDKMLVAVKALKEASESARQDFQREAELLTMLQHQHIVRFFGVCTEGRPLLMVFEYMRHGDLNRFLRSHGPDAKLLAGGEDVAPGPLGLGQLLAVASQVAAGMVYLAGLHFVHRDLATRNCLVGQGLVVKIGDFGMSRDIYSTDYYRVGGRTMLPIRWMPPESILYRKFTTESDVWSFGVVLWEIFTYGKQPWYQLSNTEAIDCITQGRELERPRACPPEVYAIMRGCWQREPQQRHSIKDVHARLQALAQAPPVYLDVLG

For `Cc1ccc(C(=O)Nc2ccc(CN3CCN(C)CC3)c(C(F)(F)F)c2)cc1C#Cc1cnc2c(Nc3cnn(C)c3)cccn12` [Example 1, 4-methyl-3-((8-((1-methyl-1H-pyrazol-4-yl)amino)imidazo[1,2-a]pyridin-3-yl)ethynyl)-N-(4-((4-methylpiperazin-1-yl)methyl)-3-(trifluoromethyl)phenyl)benzamide], the remaining binding at 1 µM came out at 51% in assay [1]; 100% in assay [2]; 0% in assay [3]; 81% in assay [4]; 0% in assay [5]; 2% in assay [6]. Moreover, the remaining binding at 1 µM in assay [7] came out at 67%.

As for `Cc1ccc(NC(=O)C2(C(=O)Nc3ccc(F)cc3)CC2)cc1C#Cc1cnc2c(Nc3cnn(C(C)C)c3)cccn12` [Example 78], the remaining binding at 1 µM in assay [1] was found to be 69%; in assay [2], 100%; in assay [3] it was 100%; in assay [4], 100%; in assay [5] it was 100%; in assay [6] it was 93%. Moreover, the remaining binding at 1 µM in assay [7] amounted to 90%.

With `Cc1cn(-c2cc(NC(=O)c3ccc(C)c(C#Cc4cnc5c(Nc6cnn(C)c6)cccn45)c3)cc(C(F)(F)F)c2)cn1` [Example 12, 4-methyl-N-(3-(4-methyl-1H-imidazol-1-yl)-5-(trifluoromethyl)phenyl)-3-((8-((1-methyl-1H-pyrazol-4-yl)amino)imidazo[1,2-a]pyridin-3-yl)ethynyl)benzamide], the remaining binding at 1 µM was 66% in assay [1]; 94% in assay [2]; 0% in assay [3]; 85% in assay [4]; 1% in assay [5]; 48% in assay [6]. For the same compound, in assay [7], the remaining binding at 1 µM was determined as 71%.

The values above are taken from patent US10870647B2, “Imidazopyridine derivative, method for preparing same, and pharmaceutical composition containing same as active ingredient for preventing or treating cancer” (DAEGU-GYEONGBUK MEDICAL INNOVATION FOUNDATION, priority 2016, dated 2020).
